According to EPA's ToxValDB 9.5 (doi:10.2903/j.efsa.2010.1771):
In brackets after ≈: the same amount, converted by molar mass.

What was measured:
Daphnia magna = details: chronic/long-term; duration: 21 days; reproduction
Typhlodromus pyri = details: not reported; mortality
Canidae = details: oral, Dog Other, hematological
Apis mellifera = details: acute; duration: 48 hours; oral; unspecified; mortality
Tagia sp. = details: acute; mortality
Anas platyrhynchos = details: short-term; oral; feed; mortality

Work on `CCSC(C)CC1CC(=O)C(C(CC)=NOC/C=C/Cl)=C(O)C1` (stereo not drawn) [Clethodim] yielded an NOEC (Daphnia magna) of 49 mg/L, an LEL (Typhlodromus pyri) of 9.6 g/ha and an LD50 (Colinus virginianus; acute, oral, mortality) greater than 1640 mg/kg. For the same compound, the NOEL (Colinus virginianus; reproduction developmental, reproduction) was 17 mg/kg-day, the LD50 (Rattus norvegicus; acute, oral, mortality) was 1130 mg/kg and the NOAEL (Rattus norvegicus; chronic, duration: 2 years, organ weight) was 16 mg/kg-day. For the same compound, the NOAEL (Canidae; chronic, duration: 1 years) was 21 mg/kg-day, the NOAEL (Canidae; subchronic, duration: 90 days) was 21 mg/kg-day and the LC50 (Oncorhynchus mykiss; acute, duration: 96 hours, mortality) was 25 µg/mL (≈ 69.5 µM). For the same compound, the NOEC (Oncorhynchus mykiss; chronic/long-term, duration: 21 days) was 3.9 mg/L, the LD50 (Apis mellifera) was greater than 43 µg/piece and the LC50 (Tagia sp.) was 129 mg/kg. The LC50 (Anas platyrhynchos) was greater than 851 mg/kg-day.
